Values joined by “and” are separate entries in the source; they are usually repeats but may differ in a detail not shown here. Identical values can stand only once. Like-named read-outs stand apart in the source and are kept apart here.
Assays:
[1] = biological target: T1, human CYP11B2 (Homo sapiens, UniProt P19099); assay: CYP11B2 inhibition assay in V79MZh cells; type: cell-based; details: human CYP11B2 expressed in hamster V79MZh cells; mean of at least three experiments
T1 construct: expressed in transfected cells; host or cells: hamster V79MZh cells
T1 sequence (P19099 25-503): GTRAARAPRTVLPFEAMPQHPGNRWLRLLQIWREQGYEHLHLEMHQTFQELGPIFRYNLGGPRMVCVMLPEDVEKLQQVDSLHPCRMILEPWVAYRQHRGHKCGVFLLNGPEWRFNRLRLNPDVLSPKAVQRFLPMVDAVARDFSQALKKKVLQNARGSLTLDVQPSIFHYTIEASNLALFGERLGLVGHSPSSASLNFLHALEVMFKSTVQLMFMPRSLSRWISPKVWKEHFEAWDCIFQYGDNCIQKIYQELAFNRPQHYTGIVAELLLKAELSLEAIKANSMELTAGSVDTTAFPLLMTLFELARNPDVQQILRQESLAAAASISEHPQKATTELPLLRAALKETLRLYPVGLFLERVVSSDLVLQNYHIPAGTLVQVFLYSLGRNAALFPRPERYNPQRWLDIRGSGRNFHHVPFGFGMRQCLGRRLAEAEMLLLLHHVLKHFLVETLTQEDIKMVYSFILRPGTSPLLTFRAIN
Method: (§1) The selected potential inhibitors were dissolved in DMSO at a concentration of 10 mM to generate stock solutions. Various aliquots were then made from fresh stock solutions and each aliquot was tested only once.
(§2) The selected hits were evaluated for their inhibition of human CYP11B1 and CYP11B2 enzymes expressed in hamster V79MZh cells. Approximately […] V79MZh cells were cultured in 24-well cell culture plates for 24 h. The area of each well was 1.9 cm^2. The cells were exposed to various concentrations of inhibitor solutions. The reactions were started by incubating the cells with [^3H]11-deoxycorticosterone. The incubation time for CYP11B1 cells was 15–60 and 50–120 min for CYP11B2 cells. The reactions were stopped by extracting the supernatant with cold ethyl acetate at 4°C. Samples were mixed (10 min), and centrifuged (12,500 rpm). The organic (upper) layer was separated into fresh Eppendorf tubes and dried. The steroids were re-dissolved in methanol-water (65–35%) and were analyzed by radio-HPLC (Denner et al., [1995a]; Ehmer et al., [2002]).

[2] = biological target: T2, human CYP11B1 (Homo sapiens, UniProt P15538); assay: CYP11B1 inhibition assay in V79MZh cells; type: cell-based
T2 construct: expressed in transfected cells; host or cells: hamster V79MZh cells
T2 sequence (P15538 25-503): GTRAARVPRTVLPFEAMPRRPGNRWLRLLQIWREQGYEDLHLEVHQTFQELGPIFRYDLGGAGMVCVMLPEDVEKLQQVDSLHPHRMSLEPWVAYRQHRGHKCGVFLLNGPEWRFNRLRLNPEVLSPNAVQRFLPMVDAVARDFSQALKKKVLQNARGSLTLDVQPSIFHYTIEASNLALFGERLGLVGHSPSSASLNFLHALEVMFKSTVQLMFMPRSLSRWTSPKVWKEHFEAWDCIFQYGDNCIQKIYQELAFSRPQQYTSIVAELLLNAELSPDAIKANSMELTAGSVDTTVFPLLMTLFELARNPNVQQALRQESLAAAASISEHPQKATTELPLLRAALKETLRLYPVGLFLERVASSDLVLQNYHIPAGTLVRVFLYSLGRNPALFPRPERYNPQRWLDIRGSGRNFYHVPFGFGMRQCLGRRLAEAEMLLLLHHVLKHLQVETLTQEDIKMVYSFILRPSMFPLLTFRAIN
Method: as §1, §2

[3] = tested on: CYP11B2; details: cited from earlier work
[4] = tested on: CYP11B1; details: cited from earlier work
[5] = Figure 3, training compounds, ref Meredith et al., 2013, read-out: hCYP11B2 IC50
[6] = Figure 3, training compounds, ref Meredith et al., 2013, read-out: hCYP11B1 IC50
[7] = reported activity, supplementary Table 1, ref Lucas et al., 2008b, read-out: CYP11B2 IC50
[8] = reported activity, supplementary Table 1, ref Lucas et al., 2008b, read-out: CYP11B1 IC50
[9] = reported activity, supplementary Table 1, ref Heim et al., 2008, read-out: CYP11B2 IC50
[10] = reported activity, supplementary Table 1, ref Heim et al., 2008, read-out: CYP11B1 IC50
[11] = reported activity, supplementary Table 1, ref Gobbi et al., 2013, read-out: CYP11B2 IC50
[12] = reported activity, supplementary Table 1, ref Gobbi et al., 2013, read-out: CYP11B1 IC50
[13] = reported activity, supplementary Table 1, ref Hille et al., 2011b, read-out: CYP11B2 IC50
[14] = reported activity, supplementary Table 1, ref Hille et al., 2011b, read-out: CYP11B1 IC50
[15] = reported activity, supplementary Table 1, ref Yin et al., 2013, read-out: CYP11B2 IC50
[16] = reported activity, supplementary Table 1, ref Yin et al., 2013, read-out: CYP11B1 IC50
[17] = reported activity, supplementary Table 1, ref Voets et al., 2005, read-out: CYP11B2 IC50
[18] = reported activity, supplementary Table 1, ref Voets et al., 2005, read-out: CYP11B1 IC50
[19] = reported activity, supplementary Table 1, ref Ulmschneider et al., 2005a, read-out: CYP11B2 IC50
[20] = reported activity, supplementary Table 1, ref Ulmschneider et al., 2005a, read-out: CYP11B1 IC50
[21] = reported activity, supplementary Table 1, ref Lucas et al., 2011, read-out: CYP11B2 IC50
[22] = reported activity, supplementary Table 1, ref Lucas et al., 2011, read-out: CYP11B1 IC50
[23] = reported activity, supplementary Table 1, ref Roumen et al., 2010, read-out: CYP11B2 IC50
[24] = reported activity, supplementary Table 1, ref Roumen et al., 2010, read-out: CYP11B1 IC50
[25] = reported activity, supplementary Table 1, ref Emmerich et al., 2013, read-out: CYP11B2 IC50
[26] = reported activity, supplementary Table 1, ref Emmerich et al., 2013, read-out: CYP11B1 IC50

CN(C)C(c1ccccc1)c1nnnn1-c1ccc(Cl)cc1 (stereo not shown) [Compound 11]
IC50 [1]: 15600 ± 8450 nM
selectivity factor for CYP11B1 inhibition over CYP11B2 ([2]; from IC50 values): 6
IC50 ([2]; human CYP11B1 expressed in hamster V79MZh cells, mean of at least three experiments): 2500 nM and 2520 nM

N#Cc1ccc([C@@H]2CCCCc3cncn32)c(-c2ccc(F)cc2)c1 [Compound 4]
IC50 [3, 5]: 0.3 nM
IC50 [4, 6]: 0.4 nM

Fc1ccccc1-c1ccc(Cn2ccnc2)cn1 [CHEMBL2011244]
IC50 ([3]; reported activity, supplementary Table 1, ref Hille et al., 2011a, read-out: CYP11B2 IC50): 1740 nM
IC50 ([4]; reported activity, supplementary Table 1, ref Hille et al., 2011a, read-out: CYP11B1 IC50): 72 nM

c1cncc(-c2ccc3c(c2)CCCC3)c1 [CHEMBL461457]
IC50 [3, 7]: 29 nM
IC50 [4, 8]: 1980 nM

COc1ccc2cc(-c3cnccc3CO)ccc2c1 [CHEMBL449894]
IC50 [3, 9]: 22 nM
IC50 [4, 10]: 1760 nM

CCOc1ccc(Cn2ccnc2)c2c(=O)c3ccccc3oc12 [CHEMBL2333330]
IC50 [3, 11]: 14.8 nM
IC50 [4, 12]: 25.4 nM

c1cn(CC23CC4CC(CC(C4)C2)C3)cn1 [CHEMBL1651505]
IC50 [3, 13]: 30 nM
IC50 [4, 14]: 5 nM

O=C1CCc2cc(C(c3ccc(F)cc3)c3cccnc3)cc3c2N1CC3 (stereo not shown) [CHEMBL2312972]
IC50 [3, 15]: 587 nM
IC50 [4, 16]: 78 nM

COc1ccc2cc(-c3cccnc3)ccc2c1Cl [CHEMBL197576]
IC50 [3, 17]: 13 nM
IC50 [4, 18]: 2520 nM

N#Cc1ccc(C2(C(=O)OCc3ccc(F)cc3)CCc3cncn32)c(Cl)c1 (stereo not shown) [Compound 5]
IC50 [3, 5]: 3.8 nM
IC50 [4, 6]: < 0.1 nM

O=C1CCc2cc(C(c3ccc(F)cc3)n3ccnc3)cc3c2N1CC3 (stereo not shown) [CHEMBL2163644]
IC50 ([3]; reported activity, supplementary Table 1, ref Yin et al., 2012, read-out: CYP11B2 IC50): 29 nM
IC50 ([4]; reported activity, supplementary Table 1, ref Yin et al., 2012, read-out: CYP11B1 IC50): 27 nM

C(=C1/CCCc2ccccc21)/c1ccncc1 [CHEMBL360026]
IC50 [3, 19]: 15 nM
IC50 [4, 20]: 143 nM

N#Cc1ccc2cc(-c3cccnc3)ccc2c1 [CHEMBL196796]
IC50 [3, 17]: 3 nM
IC50 [4, 18]: 691 nM

COc1ccc2cc(-c3cncc4ccccc34)ccc2c1 [CHEMBL500394]
IC50 [3, 9]: 0.6 nM
IC50 [4, 10]: 67 nM

C(=C1/CCCc2ccccc21)/c1cccnc1 [CHEMBL193606]
IC50 [3, 19]: 22 nM
IC50 [4, 20]: 715 nM

c1ccc(-c2ccc(Cn3ccnc3)o2)cc1 [CHEMBL1651513]
IC50 [3, 13]: 372 nM
IC50 [4, 14]: 46 nM

COc1ccc2cc(-c3cnccc3N)ccc2c1 [CHEMBL453169]
IC50 [3, 9]: 13 nM
IC50 [4, 10]: 1520 nM

O=C1CCc2cc(-c3cncc(-c4ccc(F)cc4)c3)cc3c2N1CC3 [CHEMBL1765222]
IC50 [3, 21]: 0.9 nM
IC50 [4, 22]: 40 nM

OC1CCc2cc(-c3cccnc3)ccc2C1 (stereo not shown) [CHEMBL461458]
IC50 [3, 7]: 44 nM
IC50 [4, 8]: 4920 nM

Cc1cncn1Cc1ccc(C#N)cc1 [CHEMBL162496]
IC50 [3, 23]: 12 nM
IC50 [4, 24]: 141 nM

COc1ccc2ccc(-c3cncc(F)c3)c(Cl)c2c1 [CHEMBL2420679]
IC50 ([3]; reported activity, supplementary Table 1, ref Pinto-Bazurco Mendieta et al., 2013, read-out: CYP11B2 IC50): 38 nM
IC50 ([4]; reported activity, supplementary Table 1, ref Pinto-Bazurco Mendieta et al., 2013, read-out: CYP11B1 IC50): 1420 nM

O=C1CSc2cc(-c3cccnc3)ccc2N1 [CHEMBL509971]
IC50 [3, 7]: 12 nM
IC50 [4, 8]: 525 nM

O=C1CCc2cc(C(c3cccnc3)c3cccc(Cl)c3)cc3c2N1CC3 (stereo not shown) [CHEMBL2312971]
IC50 [3, 15]: > 5000 nM
IC50 [4, 16]: 36 nM

O=C1CCc2cc(-n3ccnc3)cc3c2N1CC3 [CHEMBL1765218]
IC50 [3, 21]: 89 nM
IC50 [4, 22]: 2080 nM

O=C1CCc2cc(C(O)(c3ccccc3)c3ccncc3)cc3c2N1CC3 (stereo not shown) [CHEMBL2312953]
IC50 [3, 15]: 85 nM
IC50 [4, 16]: 745 nM

c1ccc(-c2ccc(Cc3cccnc3)cn2)cc1 [CHEMBL2417633]
IC50 [3, 25]: 322 nM
IC50 [4, 26]: 32 nM

N#Cc1ccc(Cn2cncc2-c2ccc(F)cc2)cc1 [CHEMBL598790]
IC50 [3, 23]: 25 nM
IC50 [4, 24]: 27 nM

COc1ccc2c(c1)CC(C)C(c1cccnc1)=C2 (stereo not shown) [CHEMBL502266]
IC50 [3, 9]: 3.3 nM
IC50 [4, 10]: 248 nM

COC(=O)c1cncc(-c2ccc3cc(OC)ccc3c2)c1 [CHEMBL500146]
IC50 [3, 9]: 0.8 nM
IC50 [4, 10]: 15 nM

c1ccc(-c2ccccc2Cn2ccnc2)cc1 [CHEMBL1651496]
IC50 [3, 13]: 39 nM
IC50 [4, 14]: 15 nM

O=C1CCc2cc(-c3cccnc3)ccc2C1 [CHEMBL462093]
IC50 [3, 7]: 7.8 nM
IC50 [4, 8]: 3960 nM

COc1ccc2cc(-c3cnccc3C)ccc2c1 [CHEMBL500664]
IC50 [3, 9]: 0.8 nM
IC50 [4, 10]: 114 nM

CCOc1cc2c(cc1-c1cccnc1)CCC(=O)N2C [CHEMBL2165317]
IC50 ([3]; reported activity, supplementary Table 1, ref Hu et al., 2012, read-out: CYP11B2 IC50): 19 nM
IC50 ([4]; reported activity, supplementary Table 1, ref Hu et al., 2012, read-out: CYP11B1 IC50): 790 nM

CCC(C)Oc1ccc(Cn2ccnc2)c2c(=O)c3ccccc3oc12 (stereo not shown) [CHEMBL2333333]
IC50 [3, 11]: 15.3 nM
IC50 [4, 12]: 13.1 nM

COc1cncc(-c2ccc3c(c2)CCC(=O)N3)c1 [CHEMBL457646]
IC50 [3, 7]: 2.7 nM
IC50 [4, 8]: 339 nM

Clc1ccc(Cn2cncc2-c2ccccc2)cc1 [CHEMBL597101]
IC50 [3, 23]: 5.8 nM
IC50 [4, 24]: 25 nM

c1ccc(-c2ccc(C(C3CC3)n3ccnc3)cn2)cc1 (stereo not shown) [CHEMBL2417621]
IC50 [3, 25]: 25 nM
IC50 [4, 26]: 21 nM

COc1cncc(-c2cc3ccc(OC)cc3cc2C)c1 [CHEMBL502818]
IC50 [3, 9]: 3.8 nM
IC50 [4, 10]: 875 nM

O=C1CCc2cc(Cc3cccnc3)cc3c2N1CC3 [CHEMBL2312965]
IC50 [3, 15]: 74 nM
IC50 [4, 16]: 16 nM

O=C1CCc2cc(-c3cncc4ccccc34)cc3c2N1CCC3 [CHEMBL1765215]
IC50 [3, 21]: 0.2 nM
IC50 [4, 22]: 34 nM

Cc1ccccc1Cn1ccnc1 [CHEMBL1651492]
IC50 [3, 13]: 62 nM
IC50 [4, 14]: 61 nM

CC(c1ccc(-c2ccccc2)nc1)n1ccnc1 (stereo not shown) [CHEMBL2417619]
IC50 [3, 25]: 200 nM
IC50 [4, 26]: 33 nM
